Source: ChEMBL document CHEMBL5649169 (ChemMedChem, 2018)

Experiments:
[1] = molecular target: Host cell factor 1 (Homo sapiens) (UniProt P51610); note: assay method not described here
[2] = molecular target: Structural maintenance of chromosomes protein 3 (Homo sapiens) (UniProt Q9UQE7); note: assay method not described here
Ataxin-10 (Homo sapiens) = Ataxin-10 (Homo sapiens) (UniProt Q9UBB4); note: assay method not described here
[3] = molecular target: Transcriptional regulator protein Pur-beta (Homo sapiens) (UniProt Q96QR8); note: assay method not described here
Transcriptional regulator protein Pur-beta (Homo sapiens), sequence (Q96QR8 whole entry, the tested form may be a part): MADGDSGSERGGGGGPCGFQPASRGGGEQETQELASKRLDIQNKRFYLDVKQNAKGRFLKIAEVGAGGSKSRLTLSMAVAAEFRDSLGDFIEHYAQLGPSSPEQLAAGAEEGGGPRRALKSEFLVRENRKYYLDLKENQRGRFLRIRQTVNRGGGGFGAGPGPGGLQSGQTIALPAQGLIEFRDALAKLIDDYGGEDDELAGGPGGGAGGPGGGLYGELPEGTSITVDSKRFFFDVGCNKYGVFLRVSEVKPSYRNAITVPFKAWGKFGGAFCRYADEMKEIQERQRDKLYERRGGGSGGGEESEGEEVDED

Ephrin type-A receptor 3 = Ephrin type-A receptor 3 (Homo sapiens, UniProt P29320); assay: Inhibition of Nano Luc-fused full length C-terminal EPHA3 (unknown origin) expressed in HEK293T cells using NanoGlo as substrate incubated for 2 hrs in presence of tracer by NanoBRET assay; assay type: cell-based
[4] = molecular target: Dual specificity protein kinase CLK1 (Homo sapiens) (UniProt P49759); note: assay method not described here
[5] = molecular target: Prohibitin-2 (Homo sapiens) (UniProt Q99623); note: assay method not described here
Homo sapiens [6] = organism: Homo sapiens; note: assay method not described here
[7] = molecular target: Exportin-5 (Homo sapiens) (UniProt Q9HAV4); note: assay method not described here
[8] = molecular target: 5'-3' exoribonuclease 2 (Homo sapiens) (UniProt Q9H0D6); note: assay method not described here
5'-3' exoribonuclease 2 (Homo sapiens), sequence (Q9H0D6 whole entry): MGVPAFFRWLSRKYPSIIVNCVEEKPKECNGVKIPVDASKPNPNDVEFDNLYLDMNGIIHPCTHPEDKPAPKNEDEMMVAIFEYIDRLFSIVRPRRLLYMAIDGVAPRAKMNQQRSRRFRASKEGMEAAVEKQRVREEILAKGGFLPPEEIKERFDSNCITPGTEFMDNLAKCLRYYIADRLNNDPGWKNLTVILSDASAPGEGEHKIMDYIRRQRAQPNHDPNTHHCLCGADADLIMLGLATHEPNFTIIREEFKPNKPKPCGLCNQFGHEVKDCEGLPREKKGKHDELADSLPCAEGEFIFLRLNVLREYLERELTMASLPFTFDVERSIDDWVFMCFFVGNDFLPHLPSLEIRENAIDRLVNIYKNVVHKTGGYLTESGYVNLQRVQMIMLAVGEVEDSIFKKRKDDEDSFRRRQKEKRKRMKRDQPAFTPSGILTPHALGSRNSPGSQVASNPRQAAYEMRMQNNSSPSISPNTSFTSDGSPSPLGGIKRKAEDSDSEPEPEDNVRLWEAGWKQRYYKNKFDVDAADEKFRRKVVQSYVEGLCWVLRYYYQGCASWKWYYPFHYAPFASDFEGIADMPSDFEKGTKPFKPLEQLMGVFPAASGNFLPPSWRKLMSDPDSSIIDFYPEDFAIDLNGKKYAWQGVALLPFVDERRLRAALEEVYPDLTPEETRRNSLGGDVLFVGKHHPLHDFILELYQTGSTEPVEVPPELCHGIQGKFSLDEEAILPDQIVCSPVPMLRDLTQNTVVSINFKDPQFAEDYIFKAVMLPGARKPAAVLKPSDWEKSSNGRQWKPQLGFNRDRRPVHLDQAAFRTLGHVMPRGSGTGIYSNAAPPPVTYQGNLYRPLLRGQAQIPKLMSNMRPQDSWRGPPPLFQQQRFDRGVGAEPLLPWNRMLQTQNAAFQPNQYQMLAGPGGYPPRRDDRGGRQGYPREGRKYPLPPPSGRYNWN

[9] = molecular target: Lon protease homolog, mitochondrial (Homo sapiens) (UniProt P36776); note: assay method not described here
Lon protease homolog, mitochondrial (Homo sapiens), sequence (P36776 whole entry): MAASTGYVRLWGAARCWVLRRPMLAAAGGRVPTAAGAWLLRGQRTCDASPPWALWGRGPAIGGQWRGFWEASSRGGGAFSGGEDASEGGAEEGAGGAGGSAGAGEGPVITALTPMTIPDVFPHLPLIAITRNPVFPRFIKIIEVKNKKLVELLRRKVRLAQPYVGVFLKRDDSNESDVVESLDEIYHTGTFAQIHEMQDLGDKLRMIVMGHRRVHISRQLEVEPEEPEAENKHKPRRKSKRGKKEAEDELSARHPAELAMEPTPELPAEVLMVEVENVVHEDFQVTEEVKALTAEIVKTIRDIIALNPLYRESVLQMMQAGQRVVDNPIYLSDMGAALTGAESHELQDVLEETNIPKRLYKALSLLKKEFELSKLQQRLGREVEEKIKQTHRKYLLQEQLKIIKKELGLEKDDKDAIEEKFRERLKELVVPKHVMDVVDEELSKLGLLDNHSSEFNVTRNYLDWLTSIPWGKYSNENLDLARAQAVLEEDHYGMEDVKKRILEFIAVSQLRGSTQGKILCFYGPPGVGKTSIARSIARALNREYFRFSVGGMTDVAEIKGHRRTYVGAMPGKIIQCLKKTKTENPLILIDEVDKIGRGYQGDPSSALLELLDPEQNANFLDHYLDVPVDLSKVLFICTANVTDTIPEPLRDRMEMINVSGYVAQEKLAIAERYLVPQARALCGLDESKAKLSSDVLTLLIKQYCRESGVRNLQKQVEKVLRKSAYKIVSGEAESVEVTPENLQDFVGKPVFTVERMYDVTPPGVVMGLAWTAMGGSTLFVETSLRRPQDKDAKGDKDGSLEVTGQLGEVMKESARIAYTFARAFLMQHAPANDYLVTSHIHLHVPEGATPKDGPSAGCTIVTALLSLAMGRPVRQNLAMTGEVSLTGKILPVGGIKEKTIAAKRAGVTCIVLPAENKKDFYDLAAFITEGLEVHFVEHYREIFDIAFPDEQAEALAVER

[10] = molecular target: ATP synthase F(0) complex subunit e, mitochondrial (Homo sapiens) (UniProt P56385); note: assay method not described here
ATP synthase F(0) complex subunit e, mitochondrial (Homo sapiens), sequence (P56385 whole entry, one chain of several): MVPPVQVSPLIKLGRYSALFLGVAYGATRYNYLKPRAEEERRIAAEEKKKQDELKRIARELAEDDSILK

[11] = molecular target: Cytoskeleton-associated protein 4 (Homo sapiens) (UniProt Q07065); note: assay method not described here
[12] = molecular target: NADH dehydrogenase [ubiquinone] iron-sulfur protein 3, mitochondrial (Homo sapiens) (UniProt O75489); note: assay method not described here
[13] = molecular target: Protein SDA1 homolog (Homo sapiens) (UniProt Q9NVU7); note: assay method not described here
[14] = molecular target: Tubulin beta-5 chain (Homo sapiens) (UniProt P07437); note: assay method not described here
Tubulin beta-5 chain (Homo sapiens), sequence (P07437 whole entry): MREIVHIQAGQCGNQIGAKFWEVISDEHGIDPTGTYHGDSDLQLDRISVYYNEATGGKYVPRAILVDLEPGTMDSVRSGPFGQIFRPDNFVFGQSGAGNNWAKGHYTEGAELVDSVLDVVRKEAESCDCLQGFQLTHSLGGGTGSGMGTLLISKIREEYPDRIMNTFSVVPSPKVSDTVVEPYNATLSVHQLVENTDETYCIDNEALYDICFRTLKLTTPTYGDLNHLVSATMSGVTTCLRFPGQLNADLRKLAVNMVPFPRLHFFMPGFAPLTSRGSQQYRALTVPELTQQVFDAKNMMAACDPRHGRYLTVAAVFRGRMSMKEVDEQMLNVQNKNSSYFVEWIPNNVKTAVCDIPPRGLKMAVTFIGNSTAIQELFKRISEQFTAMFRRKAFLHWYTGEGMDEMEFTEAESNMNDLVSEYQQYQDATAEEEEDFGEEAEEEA

[15] = molecular target: Sodium/potassium-transporting ATPase subunit alpha-1 (Homo sapiens) (UniProt P05023); note: assay method not described here
[16] = molecular target: Multifunctional protein CAD (Homo sapiens) (UniProt P27708); note: assay method not described here
[17] = molecular target: NADH dehydrogenase [ubiquinone] 1 beta subcomplex subunit 10 (Homo sapiens) (UniProt O96000); note: assay method not described here
[18] = molecular target: GTPase-activating protein and VPS9 domain-containing protein 1 (Homo sapiens) (UniProt Q14C86); note: assay method not described here
[19] = molecular target: Spectrin alpha chain, non-erythrocytic 1 (Homo sapiens) (UniProt Q13813); note: assay method not described here
Homo sapiens [20] = organism: Homo sapiens; remark: listed apart in the source; note: assay method not described here
[21] = molecular target: Heat shock cognate 71 kDa protein (Homo sapiens) (UniProt P11142); note: assay method not described here
[22] = molecular target: TAR DNA-binding protein 43 (Homo sapiens) (UniProt Q13148); note: assay method not described here
[23] = molecular target: Malate dehydrogenase, mitochondrial (Homo sapiens) (UniProt P40926); note: assay method not described here
[24] = molecular target: Large ribosomal subunit protein uL4 (Homo sapiens) (UniProt P36578); note: assay method not described here
[25] = molecular target: Translocation protein SEC63 homolog (Homo sapiens) (UniProt Q9UGP8); note: assay method not described here
Translocation protein SEC63 homolog (Homo sapiens), sequence (Q9UGP8 whole entry, the tested form may be a part): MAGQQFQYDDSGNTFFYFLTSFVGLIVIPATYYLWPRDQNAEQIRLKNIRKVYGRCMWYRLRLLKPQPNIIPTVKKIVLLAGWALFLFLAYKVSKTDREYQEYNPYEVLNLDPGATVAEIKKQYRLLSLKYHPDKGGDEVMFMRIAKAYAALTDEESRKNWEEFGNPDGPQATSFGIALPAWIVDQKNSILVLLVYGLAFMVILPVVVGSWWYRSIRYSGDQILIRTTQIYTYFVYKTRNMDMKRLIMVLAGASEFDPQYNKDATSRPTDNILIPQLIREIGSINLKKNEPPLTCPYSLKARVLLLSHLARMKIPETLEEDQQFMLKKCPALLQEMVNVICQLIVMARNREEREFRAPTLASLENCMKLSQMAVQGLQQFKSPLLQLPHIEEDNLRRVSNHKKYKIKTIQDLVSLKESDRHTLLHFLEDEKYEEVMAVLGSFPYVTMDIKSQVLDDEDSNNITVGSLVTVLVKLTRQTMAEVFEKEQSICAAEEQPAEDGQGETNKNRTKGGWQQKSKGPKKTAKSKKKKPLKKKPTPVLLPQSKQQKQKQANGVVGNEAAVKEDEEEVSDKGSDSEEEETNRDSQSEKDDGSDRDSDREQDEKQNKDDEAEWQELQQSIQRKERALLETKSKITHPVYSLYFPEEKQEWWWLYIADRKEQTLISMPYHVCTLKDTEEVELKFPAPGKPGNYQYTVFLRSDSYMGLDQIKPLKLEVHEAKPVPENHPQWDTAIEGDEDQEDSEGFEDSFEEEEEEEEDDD

[26] = molecular target: ATPase family AAA domain-containing protein 3B (Homo sapiens) (UniProt Q5T9A4); note: assay method not described here
[27] = molecular target: Microtubule cross-linking factor 3 (Homo sapiens) (UniProt Q5TF21); note: assay method not described here
Microtubule cross-linking factor 3 (Homo sapiens), sequence (Q5TF21 whole entry): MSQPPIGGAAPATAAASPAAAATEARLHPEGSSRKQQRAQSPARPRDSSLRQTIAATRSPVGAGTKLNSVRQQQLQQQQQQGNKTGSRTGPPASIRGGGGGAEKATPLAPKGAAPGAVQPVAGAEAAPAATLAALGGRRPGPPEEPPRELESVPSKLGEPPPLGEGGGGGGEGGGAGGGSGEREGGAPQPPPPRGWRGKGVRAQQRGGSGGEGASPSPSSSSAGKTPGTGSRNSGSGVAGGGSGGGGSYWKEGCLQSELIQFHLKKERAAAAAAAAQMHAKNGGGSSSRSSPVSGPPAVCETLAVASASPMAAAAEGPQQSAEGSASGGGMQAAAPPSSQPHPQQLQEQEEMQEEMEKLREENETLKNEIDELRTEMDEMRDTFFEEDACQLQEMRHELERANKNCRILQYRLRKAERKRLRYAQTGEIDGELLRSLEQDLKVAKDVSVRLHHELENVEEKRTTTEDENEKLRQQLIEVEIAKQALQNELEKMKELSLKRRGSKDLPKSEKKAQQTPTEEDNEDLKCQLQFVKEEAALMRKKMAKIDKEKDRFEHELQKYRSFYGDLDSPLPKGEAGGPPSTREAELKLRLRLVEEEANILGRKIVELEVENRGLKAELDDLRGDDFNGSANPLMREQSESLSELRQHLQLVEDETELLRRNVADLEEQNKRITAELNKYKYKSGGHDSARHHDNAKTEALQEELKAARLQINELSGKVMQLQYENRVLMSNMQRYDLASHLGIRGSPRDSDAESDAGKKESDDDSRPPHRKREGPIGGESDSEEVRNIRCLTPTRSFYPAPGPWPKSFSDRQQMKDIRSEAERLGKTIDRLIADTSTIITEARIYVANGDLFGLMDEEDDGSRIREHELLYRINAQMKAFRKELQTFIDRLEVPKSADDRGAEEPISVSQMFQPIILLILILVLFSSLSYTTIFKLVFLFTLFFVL

[28] = molecular target: Dual specificity mitogen-activated protein kinase kinase 1 (Homo sapiens) (UniProt Q02750); note: assay method not described here
[29] = molecular target: Bone morphogenetic protein receptor type-2 (Homo sapiens) (UniProt Q13873); note: assay method not described here
[30] = molecular target: Serine/threonine-protein kinase D3 (Homo sapiens) (UniProt O94806); note: assay method not described here
[31] = molecular target: Phosphatidylserine synthase 1 (Homo sapiens) (UniProt P48651); note: assay method not described here
[32] = molecular target: Squalene synthase (Homo sapiens) (UniProt P37268); note: assay method not described here
Squalene synthase (Homo sapiens), sequence (P37268 whole entry): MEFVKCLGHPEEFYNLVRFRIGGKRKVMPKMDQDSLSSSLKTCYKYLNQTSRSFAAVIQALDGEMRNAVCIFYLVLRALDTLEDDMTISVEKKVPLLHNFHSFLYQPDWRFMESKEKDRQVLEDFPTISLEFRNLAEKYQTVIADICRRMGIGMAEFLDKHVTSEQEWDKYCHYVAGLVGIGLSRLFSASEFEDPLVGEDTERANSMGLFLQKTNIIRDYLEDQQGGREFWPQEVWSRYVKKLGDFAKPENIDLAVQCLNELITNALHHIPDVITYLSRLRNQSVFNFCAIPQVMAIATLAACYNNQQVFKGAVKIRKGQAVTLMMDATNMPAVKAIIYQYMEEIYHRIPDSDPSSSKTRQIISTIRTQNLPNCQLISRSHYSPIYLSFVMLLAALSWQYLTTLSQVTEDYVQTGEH

[33] = molecular target: 28S rRNA (cytosine(4447)-C(5))-methyltransferase (Homo sapiens) (UniProt P46087); note: assay method not described here
[34] = molecular target: Cyclin-dependent kinase 7 (Homo sapiens) (UniProt P50613); note: assay method not described here
Homo sapiens [35] = organism: Homo sapiens; remark: listed apart in the source; note: assay method not described here
[36] = molecular target: Mitogen-activated protein kinase kinase kinase kinase 2 (Homo sapiens) (UniProt Q12851); note: assay method not described here
[37] = molecular target: Proteasome subunit alpha type-1 (Homo sapiens) (UniProt P25786); note: assay method not described here
[38] = molecular target: 3-beta-hydroxysteroid-Delta(8),Delta(7)-isomerase (Homo sapiens) (UniProt Q15125); note: assay method not described here
[39] = molecular target: ATP-dependent RNA helicase DDX18 (Homo sapiens) (UniProt Q9NVP1); note: assay method not described here
[40] = molecular target: Conserved oligomeric Golgi complex subunit 7 (Homo sapiens) (UniProt P83436); note: assay method not described here
[41] = molecular target: Stress-induced-phosphoprotein 1 (Homo sapiens) (UniProt P31948); note: assay method not described here
[42] = molecular target: Eukaryotic translation initiation factor 3 subunit A (Homo sapiens) (UniProt Q14152); note: assay method not described here
[43] = molecular target: Catechol O-methyltransferase (Homo sapiens) (UniProt P21964); note: assay method not described here
[44] = molecular target: Peroxisomal acyl-coenzyme A oxidase 1 (Homo sapiens) (UniProt Q15067); note: assay method not described here

Cc1ccc(C(=O)Nc2cccc(C(F)(F)F)c2)cc1Nc1nc(-c2cccnc2)nc2nn(C)cc12 gave an ED50 [1] of 0.0523 µM, an ED50 [2] of 0.431 µM and an ED50 (Ataxin-10 (Homo sapiens)) of 1470 µM. For the same compound, the ED50 [3] was 0.0202 µM, the IC50 (Ephrin type-A receptor 3) was 0.05 µM and the ED50 [4] was 0.000313 µM. For the same compound, the ED50 [5] was 0.0686 µM, the ED50 (Homo sapiens [6]) was 0.0274 µM and the ED50 [7] was 3.69 µM. The ED50 [8] was 0.0114 µM, the ED50 [9] was 0.0644 µM and the ED50 [10] was 0.531 µM. The ED50 [11] was 0.174 µM, the ED50 [12] was 0.002 µM and the ED50 [13] was 0.000949 µM. For the same compound, the ED50 [14] was 0.00905 µM, the ED50 [15] was 0.553 µM and the ED50 [16] was 0.00448 µM. It also gave an ED50 [17] of 0.0999 µM, an ED50 [18] of 9.47 µM and an ED50 [19] of 0.12 µM. The ED50 (Homo sapiens [20]) was 0.131 µM, the ED50 [21] was 1.76 µM and the ED50 [22] was 0.176 µM. The ED50 [23] was 0.0533 µM, the ED50 [24] was 24.9 µM and the ED50 [25] was 0.0344 µM. For the same compound, the ED50 [26] was 0.0188 µM, the ED50 [27] was 0.00526 µM and the ED50 [28] was 0.0574 µM. The ED50 [29] was 0.0175 µM, the ED50 [30] was 1.55 µM and the ED50 [31] was 0.0845 µM. It also gave an ED50 [32] of 2.93 µM, an ED50 [33] of 0.366 µM and an ED50 [34] of 0.0647 µM. For the same compound, the ED50 (Homo sapiens [35]) was 0.0747 µM, the ED50 [36] was 0.0236 µM and the ED50 [37] was 9.78 µM. The ED50 [38] was 0.0123 µM, the ED50 [39] was 0.0164 µM and the ED50 [40] was 3.71 µM. For the same compound, the ED50 [41] was 0.0577 µM, the ED50 [42] was 0.0765 µM and the ED50 [43] was 0.169 µM. The ED50 [44] was 2.69 µM.
Compound Cc1ccc(C(=O)Nc2cccc(C(F)(F)F)c2)cc1Nc1nc(-c2cccnc2)nc2c1cnn2C has an ED50 [1] of 1.41 µM, an ED50 [2] of 0.0434 µM and an ED50 (Ataxin-10 (Homo sapiens)) of 0.103 µM. For the same compound, the ED50 [3] was 0.00796 µM, the IC50 (Ephrin type-A receptor 3) was 0.0003 µM and the ED50 [4] was 32.5 µM. For the same compound, the ED50 [5] was 7.38 µM, the ED50 (Homo sapiens [6]) was 1.29 µM and the ED50 [7] was 0.0475 µM. For the same compound, the ED50 [8] was 0.547 µM, the ED50 [9] was 0.575 µM and the ED50 [10] was 20 µM. For the same compound, the ED50 [11] was 0.00547 µM, the ED50 [12] was 4.77 µM and the ED50 [13] was 0.065 µM. The ED50 [14] was 2.46 µM, the ED50 [15] was 0.00682 µM and the ED50 [16] was 0.00265 µM. It also gave an ED50 [17] of 1.17 µM, an ED50 [18] of 7.36 µM and an ED50 [19] of 0.08 µM. It also gave an ED50 (Homo sapiens [20]) of 1.18 µM, an ED50 [21] of 0.121 µM and an ED50 [22] of 0.814 µM. The ED50 [23] was 0.0198 µM, the ED50 [24] was 4.73 µM and the ED50 [25] was 95700 µM. It also gave an ED50 [26] of 0.0809 µM, an ED50 [27] of 11.9 µM and an ED50 [28] of 0.00367 µM. It also gave an ED50 [29] of 3.02 µM, an ED50 [30] of 0.0978 µM and an ED50 [31] of 6.64 µM. For the same compound, the ED50 [32] was 3.81 µM, the ED50 [33] was 0.000204 µM and the ED50 [34] was 0.0338 µM. For the same compound, the ED50 (Homo sapiens [35]) was 2.74 µM, the ED50 [36] was 0.0201 µM and the ED50 [37] was 10.4 µM. The ED50 [38] was 0.0148 µM, the ED50 [39] was 0.0244 µM and the ED50 [40] was 0.018 µM. The ED50 [41] was 3.83 µM, the ED50 [42] was 0.535 µM and the ED50 [43] was 21.6 µM. The ED50 [44] was 15.2 µM.
